Laboratory results taken from US12653859B2, “Peptides and medical uses thereof” (Anbition S.R.L., priority 2018, dated 2026).

Key:
[1] = biological target: T1, VEGF-A/VEGFR-1 interaction (Homo sapiens, UniProt P17948); assay: ELISA competition assay of VEGF-A binding to VEGFR-1; details: tetrameric peptides of formula (II) with Y2 different from D-cysteine; read-out: IC50 of inhibition of the interaction VEGF-A/VEGFR-1
T1 construct: the form consisting of the seven extracellular domains of the receptor fused to the Fc domain of human IgG; purchased R&D Systems 321-FL (receptor); 293-VE (VEGF-A)
T1 sequence (P17948 27-758 limits assumed): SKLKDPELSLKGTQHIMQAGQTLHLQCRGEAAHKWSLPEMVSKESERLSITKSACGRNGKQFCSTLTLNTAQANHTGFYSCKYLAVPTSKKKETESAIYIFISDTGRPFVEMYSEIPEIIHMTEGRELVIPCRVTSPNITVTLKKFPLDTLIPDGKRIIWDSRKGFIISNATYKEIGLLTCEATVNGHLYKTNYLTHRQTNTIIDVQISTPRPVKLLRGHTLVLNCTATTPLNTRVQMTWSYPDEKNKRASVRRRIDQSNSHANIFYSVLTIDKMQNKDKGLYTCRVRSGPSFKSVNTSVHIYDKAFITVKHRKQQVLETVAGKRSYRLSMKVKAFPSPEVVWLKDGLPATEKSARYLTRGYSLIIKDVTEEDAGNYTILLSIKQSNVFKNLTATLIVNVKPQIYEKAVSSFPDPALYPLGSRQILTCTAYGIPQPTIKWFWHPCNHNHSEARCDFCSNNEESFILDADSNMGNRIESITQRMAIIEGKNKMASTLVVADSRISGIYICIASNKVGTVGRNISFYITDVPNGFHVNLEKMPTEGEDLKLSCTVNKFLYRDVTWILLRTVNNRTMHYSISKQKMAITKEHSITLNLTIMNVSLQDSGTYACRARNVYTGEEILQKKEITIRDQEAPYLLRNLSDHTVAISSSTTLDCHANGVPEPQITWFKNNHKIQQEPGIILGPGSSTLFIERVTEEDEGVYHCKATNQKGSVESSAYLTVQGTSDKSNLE
Description: The binding reaction was conducted for one hour at 37° C., followed by one hour at room temperature. At the end of the binding and/or competition step, anti-human-PIGF biotinylated polyclonal antibodies (R&D Systems, cat No. BAF264) or anti-human-VEGF-A (R&D Systems, cat No. BAF293) were added to the wells at the concentration of 300 ng/ml in PBET. After one hour of incubation at 37° C. followed by one hour at room temperature, an HRP-conjugated avidin-streptavidin system (Vectastain elite ABC kit) and a substrate for HRP (o-phenylenediamine-Sigma, cat No. P1526) were added to the wells. Quantization was performed by determining the absorbance at 490 nm. Any inhibitory activity of the peptides was expressed in terms of % of residual binding, comparing the data obtained for the binding of PIGF or VEGF-A to the receptors in the presence of the tetrameric peptides with those in the absence of the same. iVR1 represented the positive control of the inhibition of the PIGF/VEGFR-1 or VEGF-A/VEGFR-1 interaction.

[2] = Serum protease stability in 10% fetal calf serum (RP-HPLC); assay type: in vitro ADME; details: 10% FCS
Description: The stability of the peptide iVR1-Cys in 10% serum (fetal calf serum, FCS) in a 50 mM phosphate buffer solution, pH 7.3, at 168 h was determined as described by Ponticelli et al., relying on a method based on RP-HPLC chromatography, described therein [Ponticelli et al., J Biol Chem. 2008 Dec. 5; 283 (49): 34250-9].
The reference curve was constructed by dissolving the compound in DMSO at increasing concentrations of between 0.1 μmol/L and 1000 μmol/L in order to have complete dissolution. The concentration of the molecule left in contact with 10% FCS at the initial concentration of 10 μmol/L was then determined by drawing 3 aliquots at time t=0, then every hour in the first 12 hours and then at 24, 72, 120, and 168 h. The aliquots were diluted 1:1 with acetic acid 0.1 M in order to detach any peptide bound to the albumin, centrifuged to remove any precipitated materials and analyzed by RP-HPLC under the conditions reported in Ponticelli et al. The amount of residual peptide detected in the aliquots, expressed as a percentage relative to the initial amount, was plotted as a function of time. The results are shown in Table VII as the mean of the three determinations±the standard deviation (SD).

Compound: L-methionine sulfone
- IC50 [1]: 4620 ± 1400 nM

Compound: NC(=O)[C@@H](CS)NC(=O)C(CCCCNC(=O)C(CCCCNC(=O)[C@H](CC1CCCCC1)NC(=O)C(CSCc1ccccc1)NC(=O)[C@H](N)CCC(=O)O)NC(=O)[C@H](CC1CCCCC1)NC(=O)C(CSCc1ccccc1)NC(=O)[C@H](N)CCC(=O)O)NC(=O)C(CCCCNC(=O)[C@H](CC1CCCCC1)NC(=O)C(CSCc1ccccc1)NC(=O)[C@H](N)CCC(=O)O)NC(=O)[C@H](CC1CCCCC1)NC(=O)C(CSCc1ccccc1)NC(=O)[C@H](N)CCC(=O)O (some centres unmarked) [iVR1-Cys]
- % residual peptide ± SD ([2]; 0 h, 50 mM phosphate buffer pH 7.3, initial 10 μmol/L): 101 ± 4%
- remaining at 1 h, 10 μmol/L ([2]; cattle (fetal calf), 10% fetal calf serum in phosphate buffer, 1 h, pH 7.3, read-out: % residual peptide ± SD): 100 ± 11%
- remaining at 2 h, 10 μmol/L ([2]; cattle (fetal calf), 10% fetal calf serum in phosphate buffer, 2 h, pH 7.3, read-out: % residual peptide ± SD): 99 ± 7%
- remaining at 3 h, 10 μmol/L ([2]; cattle (fetal calf), 10% fetal calf serum in phosphate buffer, 3 h, pH 7.3, read-out: % residual peptide ± SD): 98 ± 5%
- remaining at 4 h, 10 μmol/L ([2]; cattle (fetal calf), 10% fetal calf serum in phosphate buffer, 4 h, pH 7.3, read-out: % residual peptide ± SD): 97 ± 4%
- remaining at 5 h, 10 μmol/L ([2]; cattle (fetal calf), 10% fetal calf serum in phosphate buffer, 5 h, pH 7.3, read-out: % residual peptide ± SD): 96 ± 5%
- remaining at 6 h, 10 μmol/L ([2]; cattle (fetal calf), 10% fetal calf serum in phosphate buffer, 6 h, pH 7.3, read-out: % residual peptide ± SD): 99 ± 6%
- remaining at 7 h, 10 μmol/L ([2]; cattle (fetal calf), 10% fetal calf serum in phosphate buffer, 7 h, pH 7.3, read-out: % residual peptide ± SD): 95 ± 8%
- remaining at 8 h, 10 μmol/L ([2]; cattle (fetal calf), 10% fetal calf serum in phosphate buffer, 8 h, pH 7.3, read-out: % residual peptide ± SD): 96 ± 5%
- remaining at 9 h, 10 μmol/L ([2]; cattle (fetal calf), 10% fetal calf serum in phosphate buffer, 9 h, pH 7.3, read-out: % residual peptide ± SD): 95 ± 6%
- remaining at 10 h, 10 μmol/L ([2]; cattle (fetal calf), 10% fetal calf serum in phosphate buffer, 10 h, pH 7.3, read-out: % residual peptide ± SD): 94 ± 10%
- remaining at 11 h, 10 μmol/L ([2]; cattle (fetal calf), 10% fetal calf serum in phosphate buffer, 11 h, pH 7.3, read-out: % residual peptide ± SD): 94 ± 8%
- remaining at 12 h, 10 μmol/L ([2]; cattle (fetal calf), 10% fetal calf serum in phosphate buffer, 12 h, pH 7.3, read-out: % residual peptide ± SD): 93 ± 4%
- remaining at 24 h, 10 μmol/L ([2]; cattle (fetal calf), 10% fetal calf serum in phosphate buffer, 24 h, pH 7.3, read-out: % residual peptide ± SD): 93 ± 6%
- remaining at 72 h, 10 μmol/L ([2]; cattle (fetal calf), 10% fetal calf serum in phosphate buffer, 72 h, pH 7.3, read-out: % residual peptide ± SD): 92 ± 7%
- remaining at 120 h, 10 μmol/L ([2]; cattle (fetal calf), 10% fetal calf serum in phosphate buffer, 120 h, pH 7.3, read-out: % residual peptide ± SD): 91 ± 5%
- remaining at 168 h, 10 μmol/L ([2]; cattle (fetal calf), 10% fetal calf serum in phosphate buffer, 168 h, pH 7.3, read-out: % residual peptide ± SD): 92 ± 8%

Compound: D-serine
- IC50 [1]: 2430 ± 3000 nM

Compound: L-cysteine
- IC50 [1]: 2030 ± 200 nM
